Numbers after ± are expanded uncertainties.
Key:
[1] = for mass density / electrical conductivity / viscosity: 101.33 kPa, Liquid; for mass density: Vibrating tube method; for surface tension liquid-gas: plate method; for electrical conductivity: Alternating current cell with electrodes
[2] = refractive index (Na D-line) (dimensionless); details: 101.33 kPa, Liquid, Standard Abbe refractometry

CC(C)C[NH2+]CCCS(=O)(=O)O.O=S(=O)([O-])O [N-isobutyl-3-sulfopropan-1-aminium hydrogen sulfate]
Details	electrical conductivity, [1] [S/m]	mass density, [1] [kg/m3]	refractive index, [2]	surface tension liquid-gas, [1] [mN/m]	viscosity, [1] [mPa·s]
293.15 K	–	1387.92 ± 4.8	1.50559 ± 0.0012	–	–
298.15 K	0.00856 ± 0.00015	–	1.50436 ± 0.0012	52.18 ± 0.78	–
303.15 K	0.0145 ± 0.00021	1383.65 ± 4.8	1.50314 ± 0.0012	51.64 ± 0.77	–
308.15 K	0.0235 ± 0.00032	–	1.50205 ± 0.0012	51.14 ± 0.77	14383 ± 3300
313.15 K	0.0367 ± 0.00047	1377.6 ± 4.8	1.5008 ± 0.0012	50.69 ± 0.76	9083 ± 1900
318.15 K	0.0526 ± 0.00063	–	1.49974 ± 0.0012	50.15 ± 0.75	5533 ± 1100
323.15 K	0.0713 ± 0.00088	1371.59 ± 4.7	1.49851 ± 0.0012	49.58 ± 0.74	3833 ± 670
328.15 K	0.104 ± 0.0012	–	1.49756 ± 0.0012	48.98 ± 0.73	2867 ± 470
333.15 K	0.14 ± 0.0016	1365.64 ± 4.7	1.4963 ± 0.0012	–	1983 ± 300
338.15 K	0.177 ± 0.0019	–	–	–	1333 ± 180
343.15 K	0.221 ± 0.0024	1359.71 ± 4.7	–	–	1033 ± 130
348.15 K	0.28 ± 0.0031	–	–	–	766.7 ± 85
353.15 K	0.353 ± 0.0038	1353.8 ± 4.6	–	–	616.7 ± 63
358.15 K	–	–	–	–	483.3 ± 45
363.15 K	–	1347.97 ± 4.6	–	–	416.7 ± 36
368.15 K	–	–	–	–	333.3 ± 26
373.15 K	–	–	–	–	283.3 ± 20

CC(C)C[NH2+]CCCCS(=O)(=O)O.O=S(=O)([O-])O [N-isobutyl-4-sulfobutan-1-aminium hydrogen sulfate]
Details	electrical conductivity, [1] [S/m]	mass density, [1] [kg/m3]	refractive index, [2]	surface tension liquid-gas, [1] [mN/m]	viscosity, [1] [mPa·s]
293.15 K	–	1359.08 ± 4.6	1.48143 ± 0.0012	–	–
298.15 K	0.593 ± 0.007	–	1.4803 ± 0.0012	47.15 ± 0.71	14433 ± 3300
303.15 K	0.757 ± 0.009	1353.21 ± 4.6	1.47918 ± 0.0012	46.79 ± 0.7	9450 ± 2000
308.15 K	1.04 ± 0.012	–	1.47804 ± 0.0012	46.48 ± 0.7	6033 ± 1200
313.15 K	1.32 ± 0.015	1347.39 ± 4.6	1.47689 ± 0.0012	46.12 ± 0.69	4267 ± 770
318.15 K	1.65 ± 0.019	–	1.47576 ± 0.0012	45.74 ± 0.69	2967 ± 490
323.15 K	2.16 ± 0.023	1341.63 ± 4.5	1.47461 ± 0.0012	45.3 ± 0.68	2117 ± 320
328.15 K	2.53 ± 0.027	–	1.4734 ± 0.0012	44.93 ± 0.67	1550 ± 220
333.15 K	3.01 ± 0.032	1335.95 ± 4.5	1.47212 ± 0.0012	–	1033 ± 130
338.15 K	3.67 ± 0.039	–	–	–	766.7 ± 85
343.15 K	4.29 ± 0.045	1330.29 ± 4.4	–	–	633.3 ± 66
348.15 K	4.96 ± 0.051	–	–	–	483.3 ± 45
353.15 K	5.61 ± 0.058	1324.66 ± 4.4	–	–	383.3 ± 32
358.15 K	–	–	–	–	316.7 ± 24
363.15 K	–	1319.09 ± 4.4	–	–	266.7 ± 19
368.15 K	–	–	–	–	200 ± 12
373.15 K	–	–	–	–	166.7 ± 8.5

Source: the NIST ThermoML archive (doi:10.1021/je5001507)
